# US20220016048A1, “CANNABIDIOL-TYPE CANNABINOID COMPOUND” (GW Research Limited, priority 2018, published 2022)
# Where two headings read alike, the source gives them in different places.
# Columns and labels:
# [1] = Toxicokinetic evaluation in embryo-foetal development study; type: in vivo, rat
# Procedure: (§1) Three groups of 20 time-mated female Wistar (Han) rats were given CBD-C4 once daily by the oral (gavage) route from Day 6 to Day 17 of gestation at dose levels of 1, 10 or 100 mg/kg/day (at a constant dose volume of 5 mL/kg), to cover the period of organogenesis.
# (§2) Blood samples were taken for toxicokinetic evaluation at pre-dose, 1, 2, 4, 6 and 24 hours after dosing on Days 6 and 17 of gestation. Clinical observations, body weight and food consumption were recorded. On Day 21 of gestation (GD 21) the females were euthanised, and the progress and outcome of pregnancy was evaluated.
# [2] = tested on: sub-chronic PCP-induced deficit in social behaviour in female Lister-Hooded rats; test: social interaction test in sub-chronic PCP treated rats; type: in vivo, rat
# Procedure: The aim of the current study was to investigate the ability of CBD-C4 (3, 10 & 30 mg/kg IP; 60 min pre-treatment (ptt)) in comparison with risperidone (an atypical antipsychotic; 0.1 mg/kg IP; 60 min pre-treatment), to antagonise a sub-chronic PCP (scPCP; 2 mg/kg IP; twice daily for 7-days; 7 day wash out)-induced deficit in social behaviour in female Lister-Hooded rats.
# 180 female Lister Hooded rats were used for this experiment, of which 90 were used for the drug study and 90 weight-matched untreated conspecifics were used as the companion rat, and their behaviour was not scored.
# Rats were housed in groups of 5 under standard laboratory conditions under a 12-hr light: dark cycle, lights on at 0700 hr. Testing was carried out in the light phase. These studies were carried out in accordance with the Animals Scientific Procedures Act (UK, 1986).
# CBD-C4 was used at doses of (3, 10, 30 mg/kg, i.p.) and risperidone was used at a dose of 0.1 mg/kg, i.p.
# Rats were randomly assigned to two treatment groups and treated with vehicle, n=15 (distilled water, i.p.) or PCP, n=75 (2 mg/kg, i.p. twice daily for 7-days). This was followed by a 7-day wash out period before the rats were tested following acute treatment with CBD-C4, risperidone or vehicle.
# Risperidone (0.1 mg/kg) was dissolved in a minimum volume of acetic acid, made up to volume with distilled water and pH adjusted to 6 with 0.1M NaOH and administered via the i.p. route in a volume of 1 ml/kg, 60 min prior to testing.
# CBD-C4 (3, 10 & 30 mg/kg) was dissolved in 2:1:17 (Ethanol:Cremophor EL:Saline 0.9%). CBD-C4 was administered via the i.p. route in a volume of 5 ml/kg, 60 min prior to testing.
# The social interaction test was performed in an open-field comprising a square box made of Plexiglas (52×52×31 cm) placed 27 cm above the floor on a moveable trolley. The floor of the box was white with black gridlines forming 9 identical squares on it. All other walls were black. A video camera connected to a video recorder and monitor was positioned above the box. The object used for the test consists of a heavy structure made of metal that cannot be displaced by the animals.
# After a 7 day drug-free period, the rats were habituated to the test environment and arena prior to the test day. Habituation consisted of placing all rats from one cage together in the empty test arena for one hour for three days including the day before the test day.
# Pairs of rats, weight matched (15-20 g) and unfamiliar to each other, receiving either no treatment (n=90 “conspecific” rats) or different treatments (PCP; n=15 “tested” rats, Vehicle; n=15 “tested” rats, or PCP+drug; n=60 “tested” rats) were placed in the test arena together for 10 minutes and behavior assessed as described below.
# An inanimate object such as an unopened drink can was also placed in the centre of the arena to measure any differences in interaction of the test animal with an unfamiliar animal as opposed to an unfamiliar object. After each 10-minute trial, the object and arena were cleaned with 10% alcohol in an attempt to remove traces of any olfactory cues. All testing was carried out under standard room illumination levels (70 cd/m^2).
# Behaviour in both trials was recorded on video for subsequent blind scoring. A behavioural scoring software program (Hindsight, Scientific programming services) was used to score the following parameters:
# Investigative sniffing behaviour: sniffing the conspecific's snout or parts of the body including the anogenital region.
# Following: rat moves after the conspecific i.e. a vehicle treated rat of the same species, around the arena.
# Avoidances: actively turning away when approached by the conspecific animal.
# Investigation of object: exploration of object placed in centre of the arena.
# Locomotor activity is recorded by counting the total number of sectors (i.e. lines) crossed by the test rat.
# All data were assessed for normality using D'Agostino and Pearson normality test. […]
# [3] = Embryo-foetal development study in rats; type: in vivo, rat; details: female, Wistar (Han), rat, in vivo
# Procedure: (§3) The objective of the study was to determine the effects of CBD-C4 on the embryonic and foetal development of the rat. The toxicokinetic profile of CBD-C4 was also assessed.
# as §1
# (§4) A similar group of rats was given the vehicle, sesame oil, following the same regimen to act as controls.
# as §2
# (§5) Foetuses were evaluated for external, visceral and skeletal malformations and […]
# [4] = tested on: pregnant Wistar (Han) rats; test: Embryo-foetal development study in rats; type: in vivo, rat
# Procedure: as §3, §1, §4, §2, §5
# mouse model of seizure = test: maximal electroshock (MES) test in the mouse; type: in vivo; details: for decrease in the number of mice showing tonic convulsions, as compared with vehicle controls: p<0.001
# Procedure: Mice were administered MES (50 mA, rectangular current: 0.6 ms pulse width, 0.4 s duration, 50 Hz) via corneal electrodes connected to a constant current shock generator (Ugo Basile: type 7801). The number of tonic convulsions was recorded.
# Twelve mice were studied per group. The test was performed blind.
# The test substance, CBD-C4, was evaluated at 5 doses (3, 10, 30, 100 and 200 mg/kg), administered i.p. 60 minutes before MES, and compared with a vehicle control group (administered under the same experimental conditions).
# Diazepam (2 mg/kg i.p.), administered i.p. 30 minutes before MES, was used as a reference substance and was compared with a vehicle group (administered i.p. 60 minutes before MES).
# Data was analysed by comparing treated groups with the appropriate vehicle control using Fisher's Exact Probability tests.
# [5] = CBD-C4 3, 10, 30 mg/kg, risperidone 0.1 mg/kg i.p., data not shown
# [6] = 1, 10 or 100 mg/kg/day oral, GD 6-17
smiles,measurement,setting,value
"C=C(C)[C@@H]1CCC(C)=C[C@H]1c1c(O)cc(CCCC)cc1O [CBD-C4, (1′R,2′R)-4-butyl-5′-methyl-2′-(prop-1-en-2-yl)-1′,2′,3′,4′-tetrahydro-[1,1′-biphenyl]-2,6-diol]",extent of accumulation (exposure after 12 daily doses vs single dose),[1]; 1 mg/kg/day,approximately 5 fold
same,extent of accumulation (exposure after 12 daily doses vs single dose),[1]; 100 mg/kg/day,~2 fold
same,time of maximum plasma concentration post dose,"[1]; GD 6, 1 mg/kg/day oral",2 h
same,time of maximum plasma concentration post dose,"[1]; GD 6, higher dose levels (10, 100 mg/kg/day) oral",6 h
same,time of maximum plasma concentration post dose,"[1]; GD 17, after 12 daily doses, all dose levels",4 h
same,plasma levels 24 hours after dosing,"[1]; both higher dose levels (10, 100 mg/kg/day)",quantifiable levels of CBD-C4 remained in plasma
same,increases in exposure (Cmax and AUC(0-t)) relative to the increase in dose,"[1]; both sampling occasions (GD 6, GD 17)",supra-proportional
same,time to complete elimination from plasma after dosing,"[1]; lowest dose level (1 mg/kg/day), both sampling occasions",≤ 24 h
same,behavioural deficits induced by scPCP,[2]; 30 mg/kg i.p.,improved all the behavioural deficits
same,avoidance behaviour compared to the scPCP-treated group,"[2]; 30 mg/kg i.p., 60 min pre-treatment",significantly decreased
same,following behaviour compared to scPCP,"[2]; 30 mg/kg i.p., 60 min pre-treatment, P<0.001",significantly increased
same,sniffing behaviour compared to scPCP,"[2]; 30 mg/kg i.p., 60 min pre-treatment, P<0.01",significant increase
same,line crossings (locomotor activity),[2]; [5],no significant effect
same,object exploration,[2]; [5],no significant effect
same,any of the parameters measured in the social interaction test,[2]; lower doses 3 and 10 mg/kg i.p.,no effect
same,NOAEL,"[3]; oral, embryo-foetal development study, sesame oil formulation (summary), read-out: NOAEL",100 mg/kg
same,NOAEL,"[3]; oral gavage GD 6-17, read-out: NOAEL for maternal and embryo-foetal toxicity",100 mg/kg/day
same,mean body weight of females,[4]; 1 mg/kg/day,unaffected
same,foetal malformations,"[4]; 10 mg/kg/day, different organ systems, no developmental pattern",two foetuses with malformations
same,mean food consumption,"[4]; 100 mg/kg/day, two days after the start of dosing, compared with controls",Lower mean food consumption
same,CBD-C4-related foetal malformations,"[4]; 1, 10 or 100 mg/kg/day",no CBD-C4-related foetal malformations
same,mean foetal weight and percentage of male foetuses,"[4]; 1, 10 or 100 mg/kg/day",no effect
same,"pregnancy parameters (number of implantations, pre- or post-implantation losses, number of live foetuses)","[4]; 1, 10 or 100 mg/kg/day",no effect
same,mortality,[4]; [6],no mortality
same,treatment-related clinical observations,[4]; [6],no treatment-related clinical observations
same,mean food consumption,[4]; 1 or 10 mg/kg/day,unaffected
same,mean body weight of females,"[4]; 10 or 100 mg/kg/day, one day after the start of dosing on Day 6 of gestation",Dose-related mean body weight loss
same,foetal variations,[4]; any of the groups maternally dosed,no noteworthy foetal variations
same,tolerability,"[4]; dose levels up to 100 mg/kg/day, pregnant rats",well tolerated
same,foetal malformations,[4]; maternally dosed at 1 or 100 mg/kg/day,no malformations
same,"decrease in the number of mice showing tonic convulsions, as compared with vehicle controls",mouse model of seizure; 100 mg/kg i.p. 60 minutes before MES,−100%
same,"decrease in the number of mice showing tonic convulsions, as compared with vehicle controls",mouse model of seizure; 200 mg/kg i.p. 60 minutes before MES,−100%
same,effect on number of mice showing tonic convulsions,"mouse model of seizure; lower doses 3, 10 and 30 mg/kg i.p. 60 minutes before MES",No effects
